The values below come from PubChem BioAssay (NCI).

Some test systems named below: DU-145 prostate; KM12 colon; MDA-MB-435; NCI-H23 lung; OVCAR-8 ovarian; SF-268 CNS; SF-295 CNS; SW-620 colon; UACC-257 melanoma; UACC-62 melanoma.
Common to all, as to test: NCI tumour cell line growth inhibition, 48 h

Where “and” joins values, the source holds several entries; their conditions need not be identical. Identical values can stand only once.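 A five-concentration, 48-hour dose response in 96-well plates underlies each endpoint, interpolated linearly between surrounding concentrations. GI50 = concentration required for 50% inhibition of growth. Definition used: TGI = concentration required for complete inhibition of growth.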

`CC(C)(C)n1cc(-c2ccnc(NCCCNS(=O)(=O)c3ccc(Br)cc3)c2)c(-c2cccc(O)c2)n1`: the GI50 in the assay with DU-145 prostate was 2.1 µM; with KM12 colon, 2.11 µM; in the assay with MDA-MB-435, 1.82 µM; with NCI-H23 lung it was 1.83 µM; with OVCAR-8 ovarian, 2.43 µM; in the assay on SF-268 CNS it was 2.4 µM. Moreover, the GI50 in the assay on SF-295 CNS was 1.71 µM; in the assay with SW-620 colon, 1.83 µM; in the assay with UACC-257 melanoma, 2.01 µM; with UACC-62 melanoma it was 1.59 µM. For the same compound, the TGI amounted to 4.23 µM in the assay on DU-145 prostate; 4.37 µM in the assay on KM12 colon; 3.29 µM in the assay on MDA-MB-435; 3.72 µM in the assay on NCI-H23 lung; 6.88 µM with OVCAR-8 ovarian; 6.48 µM in the assay with SF-268 CNS. Moreover, the TGI in the assay with SF-295 CNS stood at 3.25 µM; in the assay on SW-620 colon, 3.63 µM; in the assay on UACC-257 melanoma, 4.33 µM; in the assay on UACC-62 melanoma it was 3.06 µM.
Take `COc1ccc(NC(=O)n2nc(/C=C\c3ccc(O)c(OC)c3)cc2/C=C\c2ccc(O)c(OC)c2)cc1`: the GI50 in the assay on DU-145 prostate was 3.99 µM; with KM12 colon it was 3.19 µM; in the assay on MDA-MB-435 it was 1.25 µM; with NCI-H23 lung it was 3.81 µM; in the assay on OVCAR-8 ovarian, 5.32 µM; in the assay with SF-268 CNS it was 3.21 µM. For the same compound, the GI50 is 6.25 µM in the assay with SF-295 CNS, 5.51 µM with SW-620 colon, 16.7 µM in the assay with UACC-257 melanoma and 2.14 µM with UACC-62 melanoma. For the same compound, the TGI in the assay with DU-145 prostate came out at 24.6 µM; with KM12 colon, 20.7 µM; in the assay on MDA-MB-435 it was 4.68 µM; in the assay on NCI-H23 lung, 63.8 µM; with OVCAR-8 ovarian, 59.9 µM; in the assay with SF-268 CNS, 36.4 µM. Also, the TGI with SF-295 CNS came out at 53.2 µM; in the assay with SW-620 colon, 61.6 µM; in the assay with UACC-257 melanoma it was 64.8 µM; in the assay with UACC-62 melanoma, 6.91 µM.
`COc1cc2ncnc3c2cc1OCCCCCN(C)Cc1ccc(Br)cc1N3`: the GI50 in the assay on DU-145 prostate was 0.676 µM and 0.555 µM; in the assay on KM12 colon, 13.2 µM and > 10 µM; with MDA-MB-435, 8.63 µM and 7.39 µM; with NCI-H23 lung it was 40.8 µM and > 10 µM; in the assay with OVCAR-8 ovarian it was 12 µM and 2.67 µM; in the assay on SF-268 CNS, 29.5 µM and 4.01 µM. The GI50 with SF-295 CNS was 14.1 µM and 5.13 µM; in the assay with SW-620 colon, 6.31 µM and 5.72 µM; in the assay on UACC-257 melanoma, 17.9 µM and > 10 µM; in the assay on UACC-62 melanoma, 2.35 µM and 0.969 µM. Moreover, the TGI in the assay on DU-145 prostate, in the assay with KM12 colon, in the assay on MDA-MB-435, in the assay with NCI-H23 lung, in the assay with OVCAR-8 ovarian and in the assay with SF-268 CNS was over 100 µM throughout. Besides, the TGI with SF-295 CNS, with SW-620 colon, in the assay on UACC-257 melanoma and in the assay on UACC-62 melanoma was over 100 µM throughout.
As for `CC12CC=CCC1CCC1C2CCC2(C)C(c3ccc(=O)oc3)CCC12O` (centres undefined), the GI50 in the assay on DU-145 prostate is 0.0448 µM; in the assay on KM12 colon, 0.315 µM; in the assay on MDA-MB-435 it was 0.179 µM; in the assay on NCI-H23 lung, 0.0548 µM; in the assay with OVCAR-8 ovarian it was 0.0944 µM; with SF-268 CNS, 0.0475 µM. For the same compound, the GI50 with SF-295 CNS was 0.0462 µM; in the assay with SW-620 colon, 0.0539 µM; in the assay with UACC-257 melanoma, 0.246 µM; in the assay with UACC-62 melanoma, 0.233 µM. Moreover, the TGI in the assay on DU-145 prostate worked out at 0.168 µM; in the assay with KM12 colon, 1.55 µM; with MDA-MB-435 it was 0.727 µM; in the assay on NCI-H23 lung, 0.33 µM; in the assay on OVCAR-8 ovarian, 0.324 µM; in the assay with SF-268 CNS, 0.268 µM. Besides, the TGI in the assay on SF-295 CNS amounted to 0.25 µM; with SW-620 colon, 0.366 µM; with UACC-257 melanoma it was 0.769 µM; in the assay with UACC-62 melanoma, 0.661 µM.
Turning to `CNCCNc1nc2ccccc2c2c(=O)c3cc(F)ccc3sc12`, the GI50 in the assay with DU-145 prostate is 1.71 µM; in the assay on KM12 colon, 1.74 µM; with MDA-MB-435, 1.71 µM; in the assay on NCI-H23 lung it was 1.8 µM; in the assay with OVCAR-8 ovarian, 1.85 µM; in the assay with SF-268 CNS it was 1.69 µM. Further, the GI50 with SF-295 CNS is 1.82 µM; in the assay on SW-620 colon, 1.66 µM; in the assay with UACC-257 melanoma it was 1.73 µM; in the assay on UACC-62 melanoma it was 1.73 µM. Besides, the TGI with DU-145 prostate was 3.15 µM; with KM12 colon, 3.25 µM; in the assay with MDA-MB-435, 3.22 µM; in the assay with NCI-H23 lung, 3.65 µM; in the assay on OVCAR-8 ovarian, 3.84 µM; in the assay with SF-268 CNS it was 4.17 µM. In addition, the TGI was 3.4 µM with SF-295 CNS, 3.24 µM in the assay on SW-620 colon, 3.25 µM in the assay with UACC-257 melanoma and 3.18 µM with UACC-62 melanoma.
With `COc1cc2c(c(OC)c1OC)-c1ccc(O)c(=O)cc1[C@@H](NC(C)=O)CC2`, the GI50 in the assay on DU-145 prostate is 9.82 µM; in the assay with KM12 colon, 8.68 µM; in the assay on MDA-MB-435 it was 14.3 µM; in the assay on OVCAR-8 ovarian it was 3.77 µM; with SF-268 CNS it was 7.42 µM; in the assay with SF-295 CNS, 5.45 µM. Further, the GI50 with SW-620 colon was 7 µM; with UACC-257 melanoma it was 4.34 µM; with UACC-62 melanoma it was 3.82 µM. In addition, the TGI was over 100 µM with DU-145 prostate; > 100 µM and 32.8 µM in the assay on KM12 colon; > 100 µM and 47.4 µM in the assay on MDA-MB-435; 39.5 µM with NCI-H23 lung; > 100 µM and 35.7 µM with OVCAR-8 ovarian; over 100 µM in the assay on SF-268 CNS. The TGI in the assay with SF-295 CNS was > 100 µM and 97.3 µM; in the assay on SW-620 colon, > 100 µM and 82.5 µM; in the assay with UACC-257 melanoma, 33.3 µM and 77.1 µM; in the assay on UACC-62 melanoma, 18.1 µM and 30 µM.
In the case of `COc1ccc(/C=C\c2cc(OC)c(OC)c(OC)c2)c(NS(=O)(=O)c2ccc(Cl)cc2)c1O`, the GI50 is 0.2 µM in the assay on DU-145 prostate; 0.127 µM in the assay on KM12 colon; 0.0222 µM with MDA-MB-435; 0.288 µM in the assay with NCI-H23 lung; 0.294 µM with OVCAR-8 ovarian; 0.38 µM in the assay on SF-268 CNS. The GI50 is 0.256 µM in the assay with SF-295 CNS, 0.0694 µM with SW-620 colon, 14.2 µM with UACC-257 melanoma and 0.0635 µM in the assay with UACC-62 melanoma. Further, the TGI with DU-145 prostate was over 100 µM; in the assay with KM12 colon, 12.8 µM; in the assay with MDA-MB-435, 0.0525 µM; with NCI-H23 lung, 42.4 µM; in the assay with OVCAR-8 ovarian it was 80.6 µM; with SF-268 CNS it was 33.9 µM. The TGI in the assay on SF-295 CNS was 12.2 µM; in the assay on SW-620 colon it was over 100 µM; in the assay with UACC-257 melanoma, 60.5 µM; in the assay on UACC-62 melanoma, 22.6 µM.
